Assays:
HeLa cell line = test: MTT cytotoxicity test, HeLa; type: cell-based; conditions: Homo sapiens, 24 h treatment, triplicate, read-out: IC50 (μM) ± SD HeLa
Protocol: (§1) The human epithelioid cervix carcinoma cell line (HeLa), human ductal breast epithelial tumor cell line (T47D), Michigan Cancer Foundation-7 cell line (MCF-7), human colon carcinoma cell line (WIDR), hepatoblastoma-derived cell line (HepG2), and Vero cell line (derived from kidney of African green monkey) were purchased from ATCC by the Faculty of Medicine Gadjah Mada University. The cell lines were cultured in Dulbecco’s Modified Eagle Medium (DMEM, Gibco), except for Vero cell line, which was cultured in Medium-199 (M-199, Gibco). Other chemicals, i.e., potassium dihydrogen phosphate, sodium chloride, potassium chloride, sodium hydrogen phosphate, dimethyl sulfoxide, sodium dodecyl sulphate, HEPES, sodium bicarbonate, and 3-(4,5-dimetiltiazol-2-il)-2,5-difeniltetrazolium bromide (MTT) were purchased from Sigma-Aldrich. Fetal bovine serum, trypsin-EDTA 0.25%, and penicillin-streptomycin were purchased from Gibco, whereas Amphotericin B was purchased from Caisson. Phosphate-buffered saline (PBS) was obtained by mixing 0.2 g of KH2PO4, 8 g of NaCl, 0.2 g of KCl, 1.15 g of Na2HPO4, and 1 L of distilled water.
(§2) Confluent cells in the Petri dish was harvested by removing the growth media in Petri dish and adding 1 mL of trypsin-EDTA […]. Then the cells was incubated at incubator 37 °C, 5% CO2 for about three minutes. The suspension of cells was put in centrifuge tube, 2 mL of growth media was added with 7 mL of PBS. The mixture was centrifuged for 10 min at 1200 rpm. The supernatant was separated and 2–3 mL of growth media was added to the pellet cell for counting cell. The cell suspense was cultured in 96-well plates (10,000 cells/well). After 24 h, the porphyrin derivative compounds with series concentration were added to treat the cell cultures for another 24 h. The cells were treated by MTT solution for four hours at incubator (37 °C, 5% CO2) and the reaction was stopped by stopper solution (SDS 10% HCl). The plate was incubated at room temperature in dark condition for 24 h. The living cells were counted by reading the absorbance at 595 nm. The corresponding IC50 values were calculated using non-linear regression analysis (GraphPad Prism 7.0.3). Each test was run in triplicate.

WIDR cell line = test: MTT cytotoxicity test, WIDR; type: cell-based; conditions: Homo sapiens, 24 h treatment, triplicate, read-out: IC50 (μM) ± SD WIDR
Protocol: as §1, §2

HepG2 cell line = test: MTT cytotoxicity test, HepG2; type: cell-based; conditions: Homo sapiens, 24 h treatment, triplicate, read-out: IC50 (μM) ± SD HepG2
Protocol: as §1, §2

T47D cell line = test: MTT cytotoxicity test, T47D; type: cell-based; conditions: Homo sapiens, 24 h treatment, triplicate, read-out: IC50 (μM) ± SD T47D
Protocol: as §1, §2

MCF-7 cell line = test: MTT cytotoxicity test, MCF-7; type: cell-based; conditions: Homo sapiens, MCF7, 24 h treatment, triplicate, read-out: IC50 (μM) ± SD MCF-7
Protocol: as §1, §2

Vero cell line = test: MTT cytotoxicity test, Vero (normal cells); type: cell-based, African green monkey; conditions: Chlorocebus sabaeus, 24 h treatment, triplicate, read-out: IC50 (μM) ± SD Vero
Protocol: as §1, §2

CCOC(=O)COc1ccc(-c2c3nc(c(-c4cnn(C)c4)c4ccc([nH]4)c(-c4ccc(OCC(=O)OCC)c(OCC(=O)OCC)c4)c4nc(c(-c5cnn(C)c5)c5ccc2[nH]5)C=C4)C=C3)cc1OCC(=O)OCC [DBECPDPzP, 5,15-di-[bis(3,4-ethylcarboxymethylenoxy)phenyl]-10,20-di-(methylpyrazole-4-yl)porphyrin]
IC50 (HeLa cell line): 941.9 ± 1.2 µM | IC50 (WIDR cell line): 34.1 ± 1.1 µM | IC50 (HepG2 cell line): 31.7 ± 1.2 µM | IC50 (T47D cell line): 177.8 ± 1.2 µM | IC50 (MCF-7 cell line): 64.2 ± 1.1 µM | IC50 (Vero cell line): 363.4 ± 1.1 µM

CCOC(=O)COc1ccc(-c2c3nc(c(-c4ccc(C)cc4)c4ccc([nH]4)c(-c4ccc(OCC(=O)OCC)c(OCC(=O)OCC)c4)c4nc(c(-c5ccc(C)cc5)c5ccc2[nH]5)C=C4)C=C3)cc1OCC(=O)OCC [DBECPDTP, 5,15-di-[bis(3,4-ethylcarboxymethylenoxy)phenyl]-10,20-di(p-tolyl)porphyrin]
IC50 (HeLa cell line): 201.7 ± 1.3 µM | IC50 (WIDR cell line): 33.5 ± 1.1 µM | IC50 (HepG2 cell line): 37.2 ± 1.1 µM | IC50 (T47D cell line): 166.7 ± 1.3 µM | IC50 (MCF-7 cell line): 42.1 ± 1.1 µM | IC50 (Vero cell line): 372.2 ± 1.1 µM

Nc1ccc(-c2c3nc(c(-c4ccc(N)cc4)c4ccc([nH]4)c(-c4ccc(N)cc4)c4nc(c(-c5ccc(N)cc5)c5ccc2[nH]5)C=C4)C=C3)cc1 [TAPP, 5,10,15,20-tetrakis(p-aminophenyl)porphyrin]
IC50 (HeLa cell line): 1007 ± 1.1 µM | IC50 (WIDR cell line): 205.1 ± 1.2 µM | IC50 (HepG2 cell line): 36 ± 1.2 µM | IC50 (T47D cell line): 332.6 ± 1.2 µM | IC50 (MCF-7 cell line): 262.2 ± 1.3 µM | IC50 (Vero cell line): 2264 ± 1.2 µM

Brc1ccc(-c2c3nc(c(-c4ccc(Br)cc4)c4ccc([nH]4)c(-c4ccc(Br)cc4)c4nc(c(-c5ccc(Br)cc5)c5ccc2[nH]5)C=C4)C=C3)cc1 [TBrPP, 5,10,15,20-tetrakis(p-bromophenyl)porphyrin]
IC50 (HeLa cell line): 595.6 ± 1.3 µM | IC50 (WIDR cell line): 772.7 ± 1.3 µM | IC50 (HepG2 cell line): 882.7 ± 1.2 µM | IC50 (T47D cell line): 443.9 ± 1.1 µM | IC50 (MCF-7 cell line): 870.6 ± 1.3 µM | IC50 (Vero cell line): 1176 ± 1.1 µM | melting point: > 300 °C

Cc1ccc(-c2c3nc(c(-c4ccc(C)cc4)c4ccc([nH]4)c(-c4ccc(C)cc4)c4nc(c(-c5ccc(C)cc5)c5ccc2[nH]5)C=C4)C=C3)cc1 [TTP, 5,10,15,20-tetrakis(p-tolyl)porphyrin]
IC50 (HeLa cell line): 714.6 ± 1.1 µM | IC50 (WIDR cell line): 969.8 ± 1.2 µM | IC50 (HepG2 cell line): 1120 ± 1.3 µM | IC50 (T47D cell line): 1241 ± 1.2 µM | IC50 (MCF-7 cell line): 1305 ± 1.3 µM | IC50 (Vero cell line): 15600 µM | melting point: > 300 °C

Cc1ccc(-c2c3nc(c(-c4ccc(C)cc4)c4ccc([nH]4)c(-c4ccc(N)cc4)c4nc(c(-c5ccc(C)cc5)c5ccc2[nH]5)C=C4)C=C3)cc1 [TrTMAP, 5,10,15-tris(tolyl)-20-mono(p-aminophenyl)porphyrin]
IC50 (HeLa cell line): 593.1 ± 1.2 µM | IC50 (WIDR cell line): 835.4 ± 1.3 µM | IC50 (HepG2 cell line): 107 ± 1.3 µM | IC50 (T47D cell line): 1099 ± 1.3 µM | IC50 (MCF-7 cell line): 328.4 ± 1.4 µM | IC50 (Vero cell line): 4784 ± 1.2 µM | melting point: > 300 °C

Cc1ccc(-c2c3nc(c(-c4ccc(C)cc4)c4ccc([nH]4)c(-c4ccc([N+](=O)[O-])cc4)c4nc(c(-c5ccc(C)cc5)c5ccc2[nH]5)C=C4)C=C3)cc1 [TrTMNP, 5,10,15-tris(tolyl)-20-mono(p-nitrophenyl)porphyrin]
IC50 (HeLa cell line): 226.1 ± 1.1 µM | IC50 (WIDR cell line): 897.5 ± 1.1 µM | IC50 (HepG2 cell line): 146.6 ± 1.2 µM | IC50 (T47D cell line): 5372 ± 1.4 µM | IC50 (MCF-7 cell line): 505.2 ± 1.2 µM | IC50 (Vero cell line): 10100 µM | melting point: > 300 °C

CCOC(=O)COc1ccc(-c2c3nc(c(-c4ccc(OCC(=O)OCC)c(OCC(=O)OCC)c4)c4ccc([nH]4)c(-c4cnn(C)c4)c4nc(c(-c5cnn(C)c5)c5ccc2[nH]5)C=C4)C=C3)cc1OCC(=O)OCC [cDBECPDPzP, 5,10-di-[bis(3,4-ethylcarboxymethylenoxy)phenyl]-15,20-di-(methylpyrazole-4-yl)porphyrin]
IC50 (HeLa cell line): 1083 ± 1.2 µM | IC50 (WIDR cell line): 28.9 ± 1.1 µM | IC50 (HepG2 cell line): 28.6 ± 1.2 µM | IC50 (T47D cell line): 164.5 ± 1.2 µM | IC50 (MCF-7 cell line): 47.9 ± 1.1 µM | IC50 (Vero cell line): 548.8 ± 1.2 µM

Reference: paper PMC5874704, “In Silico Study, Synthesis, and Cytotoxic Activities of Porphyrin Derivatives” (Pharmaceuticals, 2018)
